Results reported in US20240270762A1, “PENICILLIN-BINDING PROTEIN INHIBITORS” (priority 2021, published 2024).
≈ marks a conversion by molar mass, not a printed value.

Key:
[1] = molecular target: T1, PBP3 from Escherichia coli (K-12) (Escherichia coli, UniProt P0AD68); assay: Bocillin-FL fluorescence polarization competition binding, E. coli PBP3
T1 construct: made in house
Method in brief: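 Purified PBP was preincubated with inhibitor (E. coli PBP3 1.5 μM, 30 min; P. aeruginosa PBP3 0.75 μM, A. baumannii PBP3 0.2 μM and PBP1a 1 μM, 15 min), then Bocillin-FL (0.1 μM; 0.05 μM for PBP1a) added and FP read up to 60 min. EC50 = 50% loss of bound probe.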

E. coli AG100 = assay: microbe, parasite or virus in culture; type: cell-based; conditions: Escherichia coli, AG100, read-out: MIC E. coli AG100
E. coli D22 = assay: microbe, parasite or virus in culture; type: cell-based; conditions: Escherichia coli, D22, read-out: MIC E. coli D22
E. coli AG100A = assay: Broth microdilution MIC in CAMHB; type: cell-based; conditions: Escherichia coli, read-out: MIC E. coli AG100A
K. pneumoniae 848844 = assay: microbe, parasite or virus in culture; type: cell-based; conditions: Klebsiella pneumoniae, 848844, read-out: MIC K. pneumoniae 848844
K. pneumoniae SI-117 = assay: microbe, parasite or virus in culture; type: cell-based; conditions: Klebsiella pneumoniae, SI117, read-out: MIC K. pneumoniae SI-117
A. baumannii ATCC 19606 = assay: microbe, parasite or virus in culture; type: cell-based; conditions: Acinetobacter baumannii, ATCC19606, read-out: MIC, A. baumannii ATCC 19606
P. aeruginosa ATCC 35151 = assay: microbe, parasite or virus in culture; type: cell-based; conditions: Pseudomonas aeruginosa, ATCC35151, read-out: MIC P. aeruginosa ATCC 35151
[2] = system: P. aeruginosa (ΔmexAB-oprM); assay: Broth microdilution MIC in CAMHB; type: cell-based; conditions: Pseudomonas aeruginosa; read-out: MIC P. aeruginosa ΔmexAB-oprM
[3] = system: N. gonorrhoeae ATCC 49226; assay: Liquid broth MIC in Fastidious broth; conditions: Neisseria gonorrhoeae, ATCC49226, read-out: Minimum Inhibitory Concentration (MIC), N. gonorrhoeae ATCC 49226
N. gonorrhoeae FA1090 = assay: Liquid broth MIC in Fastidious broth; conditions: Neisseria gonorrhoeae, FA1090, read-out: Minimum Inhibitory Concentration (MIC), N. gonorrhoeae FA 1090
N. gonorrhoeae WHO G = assay: Liquid broth MIC in Fastidious broth; conditions: Neisseria gonorrhoeae, read-out: Minimum Inhibitory Concentration (MIC), N. gonorrhoeae WHO G
Protocol: Additional antibacterial testing of the series was performed in 8 reference strains of N. gonorrhoeae (ATCC 49226, FA1090, MS 11, WHO G, WHO L, WHO M, WHO K, WHO X, WHO Z, WHO Q, CDC-0197). ATCC 49226, FA1090, MS11, WHO G, WHO L, and WHO M produce wild type or wild-type like PBP2. WHO K, WHO X, WHO Z, WHO Q, and CDC-0197 produce mosaic PBP2. Liquid broth-based assays were used for antibacterial testing of PBP inhibitors in Neisseria gonorrhoeae. Briefly, cryo-preserved bacterial cultures of clinical strains were streaked for isolation on Chocolate Agar (72 g/L (2×) GC Agar Base (BD #228950) and 2% (2×) Hemoglobin was autoclaved at 121° C. for 20 minutes to sterilize. Once cooled to ˜50° C. the 2×GC Agar Base and 2× Hemoglobin solutions are combined and 1% IsoVitaleX Enrichment (BD #211876) was added to the solution). Strains were incubated at 36° C. and 5% CO2 to allow growth of colonies, 24 hours before inoculum preparation. 2-fold serial dilutions of test compounds were conducted in a 96 well plate with a final volume of 75 μL per well at 2-fold the final desired concentration in Fastidious broth (Remel #R07664). For preparation of assay inoculum, a direct suspension was prepared by aseptically swabbing 10-15 colonies from agar plates into culture tubes containing 2 mL of fresh sterile saline. After the dilution plates were set up, direct suspensions were then diluted in a cuvette containing sterile saline and the optical density was measured at 600 nm. Inocula were diluted such that 75 μL of this culture in Fastidious broth results in a starting bacterial concentration of 5×10^5 CFU/mL when added to the dilution plates. The plates were incubated for ˜24 hours at 36° C. and 5% CO2.

N. gonorrhoeae WHO L = assay: Liquid broth MIC in Fastidious broth; conditions: Neisseria gonorrhoeae, read-out: Minimum Inhibitory Concentration (MIC), N. gonorrhoeae WHO L
N. gonorrhoeae WHO M = assay: Liquid broth MIC in Fastidious broth; conditions: Neisseria gonorrhoeae, read-out: Minimum Inhibitory Concentration (MIC), N. gonorrhoeae WHO M
Protocol: (§1) Liquid broth-based assays were used for antibacterial testing of PBP inhibitors in Neisseria gonorrhoeae. Briefly, cryo-preserved bacterial cultures of clinical strains were streaked for isolation on Chocolate Agar (72 g/L (2×) GC Agar Base (BD #228950) and 2% (2×) Hemoglobin was autoclaved at 121° C. for 20 minutes to sterilize. Once cooled to ˜50° C. the 2×GC Agar Base and 2× Hemoglobin solutions are combined and 1% IsoVitaleX Enrichment (BD #211876) was added to the solution). Strains were incubated at 36° C. and 5% CO2 to allow growth of colonies, 24 hours before inoculum preparation. 2-fold serial dilutions of test compounds were conducted in a 96 well plate with a final volume of 75 μL per well at 2-fold the final desired concentration in Fastidious broth (Remel #R07664). For preparation of assay inoculum, a direct suspension was prepared by aseptically swabbing 10-15 colonies from agar plates into culture tubes containing 2 mL of fresh sterile saline. After the dilution plates were set up, direct suspensions were then diluted in a cuvette containing sterile saline and the optical density was measured at 600 nm. Inocula were diluted such that 75 μL of this culture in Fastidious broth results in a starting bacterial concentration of 5×10^5 CFU/mL when added to the dilution plates. The plates were incubated for ˜24 hours at 36° C. and 5% CO2.

N. gonorrhoeae WHO X = assay: Liquid broth MIC in Fastidious broth; conditions: Neisseria gonorrhoeae, read-out: Minimum Inhibitory Concentration (MIC), N. gonorrhoeae WHO X
Protocol: as §1

N. gonorrhoeae CDC-0197 = assay: Liquid broth MIC in Fastidious broth; conditions: Neisseria gonorrhoeae, CDC0197, read-out: Minimum Inhibitory Concentration (MIC), N. gonorrhoeae CDC-0197

T1 sequence (P0AD68 1-577): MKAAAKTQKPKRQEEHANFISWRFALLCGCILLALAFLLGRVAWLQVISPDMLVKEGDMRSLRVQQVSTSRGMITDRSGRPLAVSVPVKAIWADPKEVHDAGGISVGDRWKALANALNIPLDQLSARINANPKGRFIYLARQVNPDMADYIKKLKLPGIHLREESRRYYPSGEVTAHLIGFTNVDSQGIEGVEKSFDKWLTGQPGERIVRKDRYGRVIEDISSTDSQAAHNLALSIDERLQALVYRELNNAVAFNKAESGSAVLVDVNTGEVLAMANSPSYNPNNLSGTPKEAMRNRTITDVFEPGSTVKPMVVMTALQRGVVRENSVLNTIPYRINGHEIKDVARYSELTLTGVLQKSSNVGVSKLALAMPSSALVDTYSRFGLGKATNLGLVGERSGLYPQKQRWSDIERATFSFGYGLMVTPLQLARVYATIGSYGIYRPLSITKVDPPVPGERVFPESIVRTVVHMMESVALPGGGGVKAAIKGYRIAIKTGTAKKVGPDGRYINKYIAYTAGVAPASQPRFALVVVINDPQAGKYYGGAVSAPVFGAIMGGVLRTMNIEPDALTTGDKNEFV

SMILES	EC50 [1] [µM]	MIC (E. coli AG100) [µg/mL]	MIC (E. coli D22) [µg/mL]	MIC (E. coli AG100A) [µg/mL]	MIC (K. pneumoniae 848844) [µg/mL]	MIC (K. pneumoniae SI-117) [µg/mL]	MIC (A. baumannii ATCC 19606) [µg/mL]	MIC (P. aeruginosa ATCC 35151) [µg/mL]	MIC [2] [µg/mL]	MIC [3] [µg/mL]	MIC (N. gonorrhoeae FA1090) [µg/mL]	MIC (N. gonorrhoeae WHO G) [µg/mL]	MIC (N. gonorrhoeae WHO L) [µg/mL]	MIC (N. gonorrhoeae WHO M) [µg/mL]	MIC (N. gonorrhoeae WHO X) [µg/mL]	MIC (N. gonorrhoeae CDC-0197) [µg/mL]
O=C(O)c1cccc2c1OB(O)[C@@H](NC(=O)[C@H](NC(=O)c1ccn[nH]c1=O)c1ccc(P(=O)(O)O)cc1)C2 (single isomer, unassigned) [Example 178]	< 10	> 128	2 to 4 (≈ 3.69 to 7.38 µM)	32 to 64 (≈ 59 to 118 µM)	> 128	> 128	32 to 64 (≈ 59 to 118 µM)	< 1	8 to 16 (≈ 14.8 to 29.5 µM)	< 1	< 1	< 1	1 to 2 (≈ 1.84 to 3.69 µM)	< 1	4 to 8 (≈ 7.38 to 14.8 µM)	< 1
Cn1cccc(C(=O)N[C@H](C(=O)N[C@H]2Cc3cccc(C(=O)O)c3OB2O)c2ccc(P(=O)(O)O)cc2)c1=O (single isomer, unassigned) [Example 181]	50 to 250	> 128	> 128	> 128	> 128	> 128	> 128	8 to 16 (≈ 14.4 to 28.8 µM)	> 128	16 to 32 (≈ 28.8 to 57.6 µM)	1 to 2 (≈ 1.8 to 3.6 µM)	4 to 8 (≈ 7.2 to 14.4 µM)	16 to 32 (≈ 28.8 to 57.6 µM)	16 to 32 (≈ 28.8 to 57.6 µM)	16 to 32 (≈ 28.8 to 57.6 µM)	16 to 32 (≈ 28.8 to 57.6 µM)
Cn1cccc(C(=O)N[C@@H](C(=O)N[C@H]2Cc3cccc(C(=O)O)c3OB2O)c2ccc(P(=O)(O)O)cc2)c1=O (single isomer, unassigned) [Example 182]	< 10	> 128	8 to 16 (≈ 14.4 to 28.8 µM)	32 to 64 (≈ 57.6 to 115 µM)	> 128	> 128	> 128	< 1	8 to 16 (≈ 14.4 to 28.8 µM)	1 to 2 (≈ 1.8 to 3.6 µM)	< 1	< 1	16 to 32 (≈ 28.8 to 57.6 µM)	< 1	16 to 32 (≈ 28.8 to 57.6 µM)	1 to 2 (≈ 1.8 to 3.6 µM)
O=C(O)c1cccc2c1OB(O)[C@@H](NC(=O)[C@@H](NC(=O)c1cccn(C(F)F)c1=O)c1ccc(P(=O)(O)O)cc1)C2 (single isomer, unassigned) [Example 190]	10 to 50	> 128	32 to 64 (≈ 54.1 to 108 µM)	> 128	> 128	> 128	> 128	2 to 4 (≈ 3.38 to 6.77 µM)	32 to 64 (≈ 54.1 to 108 µM)	4 to 8 (≈ 6.77 to 13.5 µM)	< 1	1 to 2 (≈ 1.69 to 3.38 µM)	16 to 32 (≈ 27.1 to 54.1 µM)	1 to 2 (≈ 1.69 to 3.38 µM)	16 to 32 (≈ 27.1 to 54.1 µM)	4 to 8 (≈ 6.77 to 13.5 µM)
O=C(O)c1cccc2c1OB(O)[C@@H](NC(=O)[C@H](NC(=O)c1cccn(C(F)F)c1=O)c1ccc(P(=O)(O)O)cc1)C2 (single isomer, unassigned) [Example 191]	< 10	> 128	8 to 16 (≈ 13.5 to 27.1 µM)	32 to 64 (≈ 54.1 to 108 µM)	> 128	> 128	> 128	< 1	8 to 16 (≈ 13.5 to 27.1 µM)	1 to 2 (≈ 1.69 to 3.38 µM)	< 1	< 1	4 to 8 (≈ 6.77 to 13.5 µM)	< 1	16 to 32 (≈ 27.1 to 54.1 µM)	1 to 2 (≈ 1.69 to 3.38 µM)
O=C(N[C@H](C(=O)N[C@H]1Cc2cccc(C(=O)O)c2OB1O)c1ccc(P(=O)(O)O)cc1)c1ccc(C(F)(F)F)cn1 (single isomer, unassigned) [Example 192]	10 to 50	> 128	8 to 16 (≈ 13.5 to 27 µM)	32 to 64 (≈ 53.9 to 108 µM)	> 128	> 128	> 128	8 to 16 (≈ 13.5 to 27 µM)	32 to 64 (≈ 53.9 to 108 µM)	1 to 2 (≈ 1.69 to 3.37 µM)	< 1	1 to 2 (≈ 1.69 to 3.37 µM)	4 to 8 (≈ 6.74 to 13.5 µM)	< 1	16 to 32 (≈ 27 to 53.9 µM)	1 to 2 (≈ 1.69 to 3.37 µM)
O=C(N[C@@H](C(=O)N[C@H]1Cc2cccc(C(=O)O)c2OB1O)c1ccc(P(=O)(O)O)cc1)c1ccc(C(F)(F)F)cn1 (single isomer, unassigned) [Example 193]	< 10	32 to 64 (≈ 53.9 to 108 µM)	2 to 4 (≈ 3.37 to 6.74 µM)	8 to 16 (≈ 13.5 to 27 µM)	> 128	> 128	> 128	2 to 4 (≈ 3.37 to 6.74 µM)	32 to 64 (≈ 53.9 to 108 µM)	< 1	< 1	< 1	4 to 8 (≈ 6.74 to 13.5 µM)	< 1	4 to 8 (≈ 6.74 to 13.5 µM)	< 1
O=C(O)c1cccc2c1OB(O)[C@@H](NC(=O)[C@@H](NC(=O)c1cnc3sccn3c1=O)c1ccc(P(=O)(O)O)cc1)C2 (single isomer, unassigned) [Example 194]	10 to 50	> 128	32 to 64 (≈ 53.5 to 107 µM)	> 128	> 128	> 128	> 128	2 to 4 (≈ 3.34 to 6.69 µM)	32 to 64 (≈ 53.5 to 107 µM)	4 to 8 (≈ 6.69 to 13.4 µM)	1 to 2 (≈ 1.67 to 3.34 µM)	4 to 8 (≈ 6.69 to 13.4 µM)	16 to 32 (≈ 26.7 to 53.5 µM)	4 to 8 (≈ 6.69 to 13.4 µM)	16 to 32 (≈ 26.7 to 53.5 µM)	16 to 32 (≈ 26.7 to 53.5 µM)
O=C(O)c1cccc2c1OB(O)[C@@H](NC(=O)[C@H](NC(=O)c1cnc3sccn3c1=O)c1ccc(P(=O)(O)O)cc1)C2 (single isomer, unassigned) [Example 195]	< 10	> 128	8 to 16 (≈ 13.4 to 26.7 µM)	> 128	> 128	> 128	> 128	< 1	8 to 16 (≈ 13.4 to 26.7 µM)	4 to 8 (≈ 6.69 to 13.4 µM)	< 1	1 to 2 (≈ 1.67 to 3.34 µM)	16 to 32 (≈ 26.7 to 53.5 µM)	1 to 2 (≈ 1.67 to 3.34 µM)	16 to 32 (≈ 26.7 to 53.5 µM)	4 to 8 (≈ 6.69 to 13.4 µM)
CS(=O)(=O)N1CCN(C(=O)NC(C(=O)N[C@H]2Cc3cccc(C(=O)O)c3OB2O)c2ccc(P(=O)(O)O)c(Cl)c2)C1=O (stereo partly drawn) [Example 11, (3R)-3-(2-(3-chloro-4-phosphonophenyl)-2-(3-(methylsulfonyl)-2-oxoimidazolidine-1-carboxamido)acetamido)-2-hydroxy-3,4-dihydro-2H-benzo[e][1,2]oxaborinine-8-carboxylic acid]	< 10	32 to 64 (≈ 49.6 to 99.3 µM)	8 to 16 (≈ 12.4 to 24.8 µM)	8 to 16 (≈ 12.4 to 24.8 µM)	> 128	> 128	> 128	8 to 16 (≈ 12.4 to 24.8 µM)	32 to 64 (≈ 49.6 to 99.3 µM)	< 1	< 1	< 1	1 to 2 (≈ 1.55 to 3.1 µM)	< 1	1 to 2 (≈ 1.55 to 3.1 µM)	< 1
CS(=O)(=O)N1CCN(C(=O)NC(C(=O)N[C@H]2Cc3cccc(C(=O)O)c3OB2O)c2ccc(P(=O)(O)O)c(F)c2)C1=O (stereo partly drawn) [Example 12, (3R)-3-(2-(3-fluoro-4-phosphonophenyl)-2-(3-(methylsulfonyl)-2-oxoimidazolidine-1-carboxamido)acetamido)-2-hydroxy-3,4-dihydro-2H-benzo[e][1,2]oxaborinine-8-carboxylic acid]	< 10	8 to 16 (≈ 12.7 to 25.5 µM)	2 to 4 (≈ 3.18 to 6.37 µM)	8 to 16 (≈ 12.7 to 25.5 µM)	> 128	> 128	32 to 64 (≈ 50.9 to 102 µM)	8 to 16 (≈ 12.7 to 25.5 µM)	32 to 64 (≈ 50.9 to 102 µM)	< 1	< 1	< 1	< 1	< 1	< 1	< 1
NC(C(=O)N[C@H]1Cc2ccc(F)c(C(=O)O)c2OB1O)c1ccc(P(=O)(O)O)cc1 (stereo partly drawn) [Example 14, (3R)-3-(2-amino-2-(4-phosphonophenyl)acetamido)-7-fluoro-2-hydroxy-3,4-dihydro-2H-benzo[e][1,2]oxaborinine-8-carboxylic acid]	> 250	> 128	> 128	> 128	> 128	> 128	> 128	> 128	> 128	> 64	> 64	> 64	> 64	> 64	> 64	> 64
